Reference: US20240409939A1 (Hoffmann-La Roche Inc., priority 2021, published 2024)
Like-named read-outs stand apart in the source and are kept apart here. Oligonucleotides are written 5' to 3', each unit as a sugar letter and its base; * is a phosphorothioate linkage, no mark a phosphodiester; rarer units and linkages stand in square brackets, end groups in braces. Plain capitals give the bases only. l = locked nucleic acid (LNA); [5mC] = 5-methylcytosine; d = 2'-deoxy (DNA)

Assays:
HBV pgRNA = HBV pgRNA in HBV infected PHH cells (Example 4); type: cell-based; conditions: for reduction of pgRNA, maximum efficacy: dose response, treatment days 4, 11, 18, harvest day 21
Protocol: (§1) Fresh primary human hepatocytes (PHH) harvested from humanized mice (uPA/SCID mice)-herein called PHH-were obtained from PhoenixBio Co., Ltd (Japan) in 96-well format and cultured in modified hepatocyte clonal growth medium (dHCGM). dHCGM is a DMEM medium containing 100 U/ml Penicillin, 100 μg/ml Streptomycin, 20 mM Hepes, 44 mM NaHC03, 15 μg/ml L-proline, 0.25 μg/ml Insulin, 50 nM Dexamethasone, 5 ng/ml EGF, 0.1 mM Asc-2P, 2% DMSO and 10% FBS (Ishida et al., 2015). Cells were cultured at 37° C., in a humidified atmosphere with 5% CO2.
(§2) PHH were infected with HBV GtD derived from HepG2.2.15 cell culture in the presence of 4% PEG for 16-20 hours. The virus inoculum was removed the following day and cells were washed 3 times with PBS before addition of fresh medium. The LNA treatment started at day 4 post HBV infection in triplicates in a 1:3 dilution series in a total volume of 120 μl per well. The start concentration is mentioned in Table 37. The same treatment was repeated on day 11 and 18. On day 21, the supernatants were harvested and stored at −80° C. for further analysis of HBsAg, HBeAg and secreted HBV DNA. The cells were washed with 1×DPBS (Gibco, #14190250) once using 150 μl/well. For the RNA readout 200 μl/well MagNA Pure 96 External Lysis Buffer (Roche, #06374913001) was added and the plates were frozen at −80° C.
(§3) Total RNA was extracted from the cells using a MagNA Pure robot and the MagNA Pure 96 Cellular RNA Large Volume Kit (Roche, #05467535001) according to the manufacturer's protocol using the “Cellular RNA LV” protocol with a final elution volume of 50 μl.
(§4) The qPCR was run on the QuantStudio Cycler with 48° C. for 15 minutes, then 95° C. for 10 minutes, then 40 cycles with 95° C. for 15 seconds and 60° C. for 1 minute, with 10 μl total reaction volume. The mRNA expression was analyzed using the comparative cycle threshold 2-ΔΔCt method normalized to the reference gene GusB and to HBV-infected, non-treated cells.

total HBV RNA = test: Intrahepatic total HBV RNA in HBV infected PHH cells (Example 4); type: cell-based; conditions: for inhibition/reduction of intrahepatic HBV RNA: highest concentration (10 μM); for inhibition of intrahepatic HBV RNA, maximum efficacy: dose response
Protocol: as §1, §2, §3, §4

RTEL1 mRNA [1] = test: RTEL1 knock-down EC50 in HBV infected PXB-PHH cells (Example 4); type: cell-based, human
Protocol: as §1, §2, §3, §4

FUBP1 mRNA = test: FUBP1 knock-down EC50 in HBV infected PXB-PHH cells (Example 4); type: cell-based, human
Protocol: as §1, §2, §3, §4

RTEL1 mRNA [2] = test: RTEL1 mRNA qPCR in HBV infected PHH cells (Example 1.1); type: cell-based, human; conditions: 16 days-treatment, % of average no drug control (NDC)
Protocol: as §1, with “(PXB-PHH)” for “(PHH)”, “NaHCO3,” for “NaHC03,”, “Dexamethazone,” for “Dexamethasone,”, “2015).” for “2015). Cells were cultured at 37° C., in a humidified atmosphere with 5% CO2.”
(§5) Cells were cultured at 37° C., in a humidified atmosphere with 5% CO2. Culture medium was replaced every 2 days until harvest, except over the weekend.
(§6) PHH were incubated with HBV (purified from chronic hepatitis B (CHB) individuals) at multiplicity of infection (MOI) of 40 together with 4% PEG for 24 hr. The virus inoculum was removed the following day and cells were washed 3 times with PBS before addition of fresh medium. To allow for cccDNA establishment, compound treatment in PHH was started at day 3 post HBV infection. The cells were dosed in a 1:10 dilution step dose response manner starting at 10 μM. On Day 3, Day 5 and Day 7 post HBV infection, the cells were dosed with oligonucleotide compounds in a final volume of 100 μl/well of dHCGM Medium. 10 nM Entecavir (ETV) treatment was started at Day 5 post infection, ensuring real cccDNA measurement by qPCR, and medium including 10 nM ETV was changed every two days (except over the weekend) until cells were harvested at Day 16 post HBV infection. The experiments were performed in biological triplicates.
Total mRNA was extracted from the cells using a Qiagen BioRobot Universal System and the RNeasy 96 well Extraction Plates (RNeasy 96 BioRobot 8000 Kit (12)/Cat No. ID: 967152) according to the manufacturer's protocol. The mRNA expression levels were analyzed using Real-time PCR on the ABI QuantStudio™ 12k Flex. […] Results were normalized over the human ACT B endogenous control. The mRNA expression was analyzed using the comparative cycle threshold 2-ΔΔCt method normalized to the reference gene ACT B and to non-treated cells.
PHH were cultured as described in the Materials and Methods section. HBV infected PHH cells were treated with the compounds from Table 6 as described above. […] The results are shown in Table 18 as % of the average no drug control (NDC) samples (i.e. the lower the value the larger the inhibition/reduction).

HBV cccDNA = HBV cccDNA quantification by qPCR in HBV infected PHH cells (Example 1.1); type: cell-based; conditions: 16 days-treatment, % of average no drug control (NDC)
Protocol: as §1, with “(PXB-PHH)” for “(PHH)”, “NaHCO3,” for “NaHC03,”, “Dexamethazone,” for “Dexamethasone,”, “2015).” for “2015). Cells were cultured at 37° C., in a humidified atmosphere with 5% CO2.”
as §5, §6
DNA was extracted from HBV infected Primary Human Hepatocytes using an SDS Lysis Buffer (50 mM Tris pH8, 5 mM EDTA, 1% SDS). After lysing cells in 80 μl SDS lysis buffer, samples were frozen at −80° C. for minimum 2 hours. […] After incubation, 3 volumes of ChIP DNA binding buffer from ZYMO Research Genomic DNA Clean & Concentrator kit (ZymoResearch, cat no. D4067) were added and DNA was purified following the manufacturer's protocol. DNA was eluted in 20 μl DNA Elution buffer and qPCR was performed using 2 μl DNA.
The cccDNA expression levels were quantified in technical duplicates using the comparative cycle threshold 2-ΔΔCt method. Quantitative real-time polymerase chain reaction measurements were performed on the QuantStudio 12K Flex PCR System (Applied Biosystems). Normalization was done to mitochondrial DNA (mitoDNA) and to non-treated cells as endogenous control using the Fast SYBR™ Green Master Mix (Life Technologies, Cat. No 4385612). Cycler settings were adjusted to incubation at 95° C. for 5 min, then 45 cycles of 95° C. for 1 sec and 60° C. for 35 sec. Primers used are listed Table 17 below (all probes in the chart are SYBR Green):
PHH were cultured as described in the Materials and Methods section. […]

RTEL1 mRNA [3] = test: RTEL1 mRNA dose response in human MDA-MB-231 cell line (Example 1.2); type: cell-based; conditions: for IC50: RTEL1 mRNA, MDA-MB-231 cells, 3 days, n=2; for mRNA level at Max KD in MDA-MB-231: relative RTEL1 mRNA level at 50 μM oligonucleotide, PBS treated samples as control
Protocol: Human MDA-MB-231 cell lines were purchased from ATCC and maintained as recommended by the supplier in a humidified incubator at 37° C. with 5% CO2. For assays, 3500 cells/well of were seeded in a 96 multi well plate in culture media. Cells were incubated for 24 hours before addition of oligonucleotides dissolved in PBS. Highest screening concentration of oligonucleotides: 50 μM and subsequent 1:1 dilutions in 8 steps. 3 days after addition of oligonucleotides, the cells were harvested. RNA was extracted using the PureLink™ Pro 96 RNA Purification kit (Thermo Fisher Scientific) according to the manufacturer's instructions and eluated in 50 μl water. The RNA was subsequently diluted 10 times with DNase/RNase free Water (Gibco) and heated to 90° C. for one minute.
For gene expressions analysis, One Step RT-qPCR was performed using qScript™ XLT One-Step RT-qPCR ToughMix®, Low ROX™ (Quantabio) in a duplex set up. The following TaqMan primer assays were used for qPCR: RTEL1_Hs00249668_m1 [FAM-MGB] and endogenous control GUSB_Hs99999908_m1 [VIC-MGB]. All primer sets were purchased from Thermo Fisher Scientific.

[4] = read-out: EC50 RTEL1 k.d., RTEL1 mRNA normalized to GUSB, % of control
[5] = read-out: EC50 for RTEL1 mRNA knock down, normalized to GUSB
[6] = read-out: EC50 FUBP1 k.d., FUBP1 mRNA normalized to GUSB, % of control
[7] = read-out: EC50 for FUBP1 mRNA knock down, normalized to GUSB

Q: How did the “trend to HBV RNA reduction (pgRNA section)” value (HBV pgRNA; highest 10 μM concentration) turn out when “5′-GN2-C6o[X]TsTsascsastsascstscstsgsgsts^mCsAsAsA [GalNAc-245_1]” was run?
A: ~12%

Q: And the “inhibition/reduction of intrahepatic HBV RNA” value (total HBV RNA)?
A: ~14%

Q: And the EC50 (RTEL1 mRNA [1]; [4])?
A: 100 nM

Q: What does the source list for “5′-GN2-C6o[X]TsTsascsastsascstscstsgsgsts^mCsAsAsAocoao^mCsTstsAstsgscstststststsastsGsgsTsT [GalNAc-351_1]”?
A: reduction of pgRNA, maximum efficacy (HBV pgRNA): 34%; inhibition of intrahepatic HBV RNA, maximum efficacy (total HBV RNA): 60%; EC50 (RTEL1 mRNA [1]; [4]): 120 nM; EC50 (RTEL1 mRNA [1]; [5]): ~100 nM; EC50 (FUBP1 mRNA; [6]): 82 nM; EC50 (FUBP1 mRNA; [7]): ~100 nM

Q: Which results are given for “5′-GN2-C6o[X]^mCsTstsAstsgscstststststsastsGsgsTsT (CTTATGCTTTTTATGGTT; 5' GalNAc conjugate via CA dinucleotide linker, case code undefined, further chemistry not given here) [GalNAc-326_3]”?
A: reduction of pgRNA, maximum efficacy (HBV pgRNA): 50%; remaining pgRNA (HBV pgRNA; highest concentration, day 21): roughly 51%; inhibition/reduction of intrahepatic HBV RNA (total HBV RNA): ~50%; EC50 (FUBP1 mRNA; [6]): 95 nM

Q: For “5′-GN2-C6o[X]^mCsTstsAstsgscstststststsastsGsgsTsTocoaoTsTsascsastsascstscstsgsgsts^mCsAsAsA [GalNAc-350_1]”, which “reduction of pgRNA, maximum efficacy” value (HBV pgRNA) is on record?
A: 40%

Q: What about the “inhibition of intrahepatic HBV RNA, maximum efficacy” value (total HBV RNA) of the same substance?
A: 67%

Q: What about the EC50 (RTEL1 mRNA [1]; [4]) of the same substance?
A: 130 nM

Q: And the EC50 (RTEL1 mRNA [1]; [5])?
A: ~100 nM

Q: And the EC50 (FUBP1 mRNA; [6])?
A: 120 nM

Q: And the EC50 (FUBP1 mRNA; [7])?
A: ~100 nM

Q: With “AATTttacatactctgGT (lA*lA*lT*lT*dT*dT*dA*dC*dA*dT*dA*dC*dT*dC*dT*dG*lG*lT) [CMP ID NO 243_1]” as the substance, how does the “RTEL % of control (Mean)” value (RTEL1 mRNA [2]) read?
A: 19 % of control

Q: And the “cccDNA % of control (Mean)” value (HBV cccDNA)?
A: 28 % of control

Q: And the IC50 (RTEL1 mRNA [3])?
A: 600 nM

Q: And the “mRNA level at Max KD in MDA-MB-231” value (RTEL1 mRNA [3])?
A: 38% of control

Q: Which results are given for “AAttttacatactctGGTC (lA*lA*dT*dT*dT*dT*dA*dC*dA*dT*dA*dC*dT*dC*dT*lG*lG*lT*l[5mC]) [CMP ID NO 244_1]”?
A: RTEL % of control (Mean) (RTEL1 mRNA [2]): 24 % of control; cccDNA % of control (Mean) (HBV cccDNA): 3 % of control; IC50 (RTEL1 mRNA [3]): 300 nM; mRNA level at Max KD in MDA-MB-231 (RTEL1 mRNA [3]): 14% of control

Q: For “CTttattataactTgaAtCTC (l[5mC]*lT*dT*dT*dA*dT*dT*dA*dT*dA*dA*dC*dT*lT*dG*dA*lA*dT*l[5mC]*lT*l[5mC]) [CMP ID NO 246_1, RTEL1 alternating flank LNA gapmer]”, which “RTEL % of control (Mean)” value (RTEL1 mRNA [2]) is on record?
A: 21 % of control

Q: And the “cccDNA % of control (Mean)” value (HBV cccDNA)?
A: 39 % of control

Q: And the IC50 (RTEL1 mRNA [3])?
A: 400 nM

Q: And the “mRNA level at Max KD in MDA-MB-231” value (RTEL1 mRNA [3])?
A: 18% of control

Q: For “TTacatactctggtCAAA (lT*lT*dA*dC*dA*dT*dA*dC*dT*dC*dT*dG*dG*dT*l[5mC]*lA*lA*lA) [CMP ID NO 245_1]”, which “RTEL % of control (Mean)” value (RTEL1 mRNA [2]) is on record?
A: 35 % of control

Q: And the “cccDNA % of control (Mean)” value (HBV cccDNA)?
A: 21 % of control

Q: And the IC50 (RTEL1 mRNA [3])?
A: 900 nM

Q: What about the “mRNA level at Max KD in MDA-MB-231” value (RTEL1 mRNA [3]) of the same substance?
A: 9% of control
